Test results as given in US20230077896A1, “MICROBIAL LIPID PRODUCTION UTILIZING POST-FERMENTATION INDUSTRIAL WASTE STREAM FEEDSTOCKS” (C16 Biosciences, Inc., priority 2020, published 2023).
Like-named read-outs stand apart in the source and are kept apart here.

Key:
[1] = system: ethanol-producing yeast and bacteria; conditions: as low as; cited from earlier work
[2] = system: Trichophyton rubrum; conditions: Kamp et al., Mycoses 2005; cited from earlier work
[3] = system: Aspergillus fumigatus; conditions: Ryan et al. 2011; cited from earlier work
[4] = system: Eutypa lata; conditions: as low as; lowered growth rate even after renewal of culture medium; cited from earlier work
[5] = system: Saccharomyces cerevisiae; conditions: concentrations in the mM range; cited from earlier work
[6] = system: Pseudoperonospora cubensis; conditions: Zhu et al. 2018; cited from earlier work
[7] = system: S. cerevisiae; experiment: Inhibition of ethanol production by S. cerevisiae (Banergee et al.); type: cell-based, Saccharomyces cerevisiae; conditions: molar conversion in parentheses
Experimental: In some embodiments, the feedstock comprises furfural. Furfural is also known as furan-2-carboxaldehyde, feral, furfuraldehyde, 2-furaldehyde, and pyromucic aldehyde. Within the art, furfural is a well-known and potent inhibitor of microbial fermentation. […] See also, Sitepu et al., “Carbon source utilization and inhibitor tolerance of 45 oleaginous yeast species,” J Ind Microbiol Biotechnol 2014;41(7):1061-1070. In some embodiments, the feedstock comprises at least 10 μM, 20 μM, 30 μM, 40 μM, 50 μM, 60 μM, 70 μM, 80 μM, 90 μM, 100 μM, 200 μM, 300 μM, 400 μM, 500 μM, 600 μM, 700 μM, 800 μM, 900 μM, 1 mM, 2 mM, 3 mM, 4 mM, 5 mM, 6 mM, 7 mM, 8 mM, 9 mM, 10 mM, 20 mM, 30 mM, 40 mM, 50 mM, 60 mM, 70 mM, 80 mM, 90 mM, or 100 mM furfural, or any ranges or subranges therebetween. In some embodiments, the feedstock comprises at least 10 μM furfural.

[8] = system: S. cerevisiae; conditions: cited from earlier work
[9] = system: R. toruloides strain A; experiment: 4-hydroxybenzaldehyde spike-in titration in YPG media, R. toruloides; type: cell-based, Rhodosporidium toruloides
[10] = system: Y. lipolytica strain poll g; experiment: 4-hydroxybenzaldehyde spike-in titration in YPG media, Y. lipolytica; type: cell-based, Yarrowia lipolytica; conditions: concentrations tested 1 μM-100 mM
[11] = system: Trichosporon cutaneuin; conditions: Wang et al. 2016; cited from earlier work
[12] = system: Rhodosporidium toruloides; conditions: Hu et al. 2009; cited from earlier work
[13] = system: R. toruloides strain A, R. toruloides strain B; experiment: Batch fermentation with glycerol supplement, R. toruloides; type: cell-based, Rhodosporidium toruloides; conditions: 50 g/L glycerol added to 30% corn stillage syrup feedstock, 6 days
Excerpt: (§1) For the purposes of this example, the exemplary feedstock employed was a 30% corn stillage syrup-based feedstock, comprising 30% v/v corn stillage syrup, with insoluble components removed via centrifugation, diluted in deionized water.
(§2) Four strains of oleaginous microorganisms were selected to investigate the potential of the exemplary feedstock to support the growth of oleaginous microorganisms: R. toruloides strain A, R. toruloides strain B, Y. lipolytica strain po 1 g, and L. starkeyi strain CBS 1807. As a control, a canonical non-oleaginous yeast, P. pastoris strain X33, was included for comparison.
(§3) Fermentations were run in batch format for 6 days. Dry cell weight, oil titer and lipid content were evaluated as described in Example 5.
(§4) 50 g/L glycerol was added to the feedstock and fermentations were again run for 6 days. Dry cell weight and oil titer were evaluated and compared to the results of the batch fermentation.

[14] = system: Y. lipolytica strain po 1 g; experiment: Batch fermentation with glycerol supplement, Y. lipolytica; type: cell-based, Yarrowia lipolytica; conditions: 50 g/L glycerol added to 30% corn stillage syrup feedstock, 6 days
Excerpt: as §1, §2, §3, §4

[15] = system: L. starkeyi strain CBS 1807; experiment: Batch fermentation with glycerol supplement, L. starkeyi; type: cell-based, Lipomyces starkeyi; conditions: 50 g/L glycerol added to 30% corn stillage syrup feedstock, 6 days
Excerpt: as §1, §2, §3, §4

[16] = system: Pantoea agglomerans; conditions: at concentrations of 10 ppm, single inhibitor; cited from earlier work
[17] = system: Fusarium avenaceum; conditions: cited from earlier work
[18] = system: microorganism growth; conditions: tens of micromolar, e.g.; cited from earlier work

O=Cc1ccc(CO)o1 [HMF, 5-(hydroxymethyl)furfural]
concentration of significant inhibition of growth and ethanol production [1]: 8 mM

NCC(=O)CCC(=O)O [5-aminolevulinic acid]
concentration showing inhibition of Trichophyton rubrum [2]: above 10 mM

O=C(O)c1ccccc1O [salicylic acid]
inhibitory concentration [3]: 0.25 mg/mL
concentration causing fungistatic effects in Eutypa lata [4]: 1 mM
effects against Saccharomyces cerevisiae [5]: fungicidal effects

O=C1CC[C@@H](C(=O)O)N1 [Pyroglutamic acid]
inhibitor of fungal species [6]: known inhibitor

O=Cc1ccco1 [furfural]
concentration inhibiting ethanol production ([7]; as low as): ~10 mM
concentration of complete inhibition of ethanol production ([7]; complete inhibition): ~40 mM
concentration inhibiting ethanol production ([8]; as low as): 0.5 g/L
concentration of complete inhibition of ethanol production ([8]; complete inhibition): 4 g/L

O=C(O)C(O)Cc1ccc(O)cc1 (centres unmarked) [Hydroxyphenyllactic acid, 2-Hydroxy-3-(p-hydroxyphenyl)propionic acid]
inhibitory concentration [3]: 5 mg/mL

O=Cc1ccc(O)cc1 [4-hydroxybenzaldehyde]
increase in oil titer as compared to the no inhibitor control ([9]; 100 μM condition): over 50%
increase in oil titer as compared to the no inhibitor control ([9]; 10 mM condition): over 50%
growth (DCW) of the R. toruloides strain ([9]; 100 mM inhibitor in YPG media): inhibited altogether
growth (DCW) of the R. toruloides strain ([9]; all concentrations tested (1 μM-10 mM) except 100 mM, YPG media, vs no inhibitor control): unaffected
effect on oil titer of R. toruloides ([9]; increasing concentrations between 1 μM and 10 mM): lipogenic effect
effect on growth of the Y. lipolytica strain [10]: no statistically significant effect
effect on oil production of the Y. lipolytica strain [10]: no statistically significant effect
concentration showing inhibition of Trichosporon cutaneum [11]: 16 mM
concentration showing inhibition of Rhodosporidium toruloides [12]: 9 mM

OCC(O)CO [glycerol]
growth (DCW) with added glycerol vs without [13]: dramatically increased
oil production with added glycerol vs without [13]: dramatically increased
growth (DCW) with added glycerol [14]: significantly less growth
oil titer with added glycerol [14]: only marginally improved
growth (DCW) with added glycerol [15]: significantly less growth
oil titer with added glycerol [15]: only marginally improved

CC1(O)CCOC(=O)C1 (racemic) [mevalonic acid lactone, 4-Hydroxy-4-methyltetrahydro-2H-pyran-2-one]
inhibition of growth of Pantoea agglomerans [16]: 10-15%
growth of Fusarium avenaceum [17]: inhibit the growth
concentration at which it can act as an inhibitor for microorganism growth [18]: 67 µM
